pEC50: −log10 of the molar value. Active and inactive are the calls of the source. The rule behind the calls is not given here.
Columns and labels:
[1] = molecular target: T1, Trace amine-associated receptor 1 (Homo sapiens) (UniProt Q96RJ0); test: Antagonist activity at human TAAR1 receptor expressed in HEK293T cells cotransfected with beta-2 receptor assessed as inhibition of beta-PEA-induced cAMP production at 100 uM by BRET assay; type: functional, cell-based; details: HEK-293T
T1 sequence (whole entry): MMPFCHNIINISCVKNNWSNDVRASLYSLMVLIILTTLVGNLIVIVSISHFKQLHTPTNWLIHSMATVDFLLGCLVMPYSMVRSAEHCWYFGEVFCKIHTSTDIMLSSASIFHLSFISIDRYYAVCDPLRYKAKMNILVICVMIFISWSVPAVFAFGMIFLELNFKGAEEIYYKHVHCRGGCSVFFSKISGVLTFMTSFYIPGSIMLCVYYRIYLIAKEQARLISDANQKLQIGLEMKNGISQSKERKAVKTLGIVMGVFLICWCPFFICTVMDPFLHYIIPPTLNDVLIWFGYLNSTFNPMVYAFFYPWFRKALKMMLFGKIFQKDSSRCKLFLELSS

[2] = molecular target: T2, Trace amine-associated receptor 1 (Homo sapiens, UniProt Q96RJ0); test: Agonist activity at human TAAR1 receptor expressed in HEK293T cells cotransfected with beta-2 receptor assessed as cAMP production by BRET assay; type: functional, cell-based, HEK-293T
T2 sequence (Q96RJ0 whole entry): T1 sequence (whole entry)

[3] = molecular target: T1, Trace amine-associated receptor 1 (Homo sapiens); test: Agonist activity at human TAAR1 receptor expressed in HEK293T cells cotransfected with beta-2 receptor assessed as cAMP production at 100 uM by BRET assay; type: functional, cell-based; details: HEK-293T
[4] = molecular target: T1, Trace amine-associated receptor 1 (Homo sapiens); test: Agonist activity at human TAAR1 receptor expressed in HEK293T cells cotransfected with beta-2 receptor assessed as cAMP production by BRET assay relative to beta-PEA; type: functional, cell-based; design: concentration or dose not given beside the values; details: HEK-293T

Row | SMILES | Activity [1] | pEC50 [2] | Activity [3] | Activity [4] [%]
1 | N=C(N)c1cccc(COc2ccccc2)c1 | Active | – | – | –
2 | NC(N)=N/N=C/c1cccc(Br)c1 | – | < 4.00 | – | –
3 | COc1ccc2[nH]cc(CN(C)C)c2c1 | – | – | Active | –
4 | C[C@@H](CNCCO)c1ccccc1 | – | – | Active | –
5 | Clc1ccc(CNCc2ccc(Cn3cncn3)cc2)c(Cl)c1 | Active | – | – | –
6 | N=C(N)N/N=C/c1cccc(Br)c1 | – | – | – | -5.4
7 | CC(C)n1c(C2CCCN2)nc2ccccc21 (centres undefined) | – | 4.92 | – | 43.4
8 | N=C(N)N/N=C1\CCCc2ccccc21 | Active | – | – | –
9 | N=C(N)N/N=C/c1ccc2c(c1)OCO2 | – | < 4.00 | – | 6.9
10 | CCn1c(C2CCCN2)nc2ccccc21 (centres undefined) | – | < 4.00 | – | 22.1
11 | Cn1c(C2CCCN2)nc2ccccc21 (centres undefined) | – | 4.74 | Active | 55.8
12 | CN(Cn1ncc2cc([N+](=O)[O-])ccc21)[C@@H]1CCc2ccccc21 | – | – | Active | –
13 | Cn1c(C2CCCCN2)nc2ccccc21 (centres undefined) | – | < 4.00 | – | 38.4
14 | COc1cccc(/C=N/NC(=N)N)c1 | Active | – | Active | 24
15 | N=C(N)N/N=C/c1ccccc1 | – | 6.77 | – | 85.5
16 | c1ccc2c(c1)nnn2C[C@H]1CCCN1 | – | – | Active | –
17 | c1ccc2sc(C3CCCN3)nc2c1 (centres undefined) | – | < 4.00 | – | 42.9
18 | C#CCN[C@H](C)Cc1ccccc1 | – | – | Active | –
19 | N=C(N)N/N=C/c1c(Cl)cccc1Cl [GUANABENZ] | – | 7.05 | – | 35.5
20 | CNCc1nc2ccccc2n1C(F)F | – | – | Active | –
21 | N=C(N)N/N=C/c1cccc(OCc2ccccc2)c1 | – | – | – | 75
22 | CN(Cc1ccc(Br)cc1)Cc1cccc(C(N)=O)c1 | Active | – | – | –
23 | Fc1ccc2c(CCNCc3cnn(-c4ccccc4)c3)c[nH]c2c1 | Active | – | – | –
24 | CCC(=O)/N=C(\N)Nc1nc2ccccc2o1 | Active | – | – | –
25 | Cc1cccc(CCN(C)C[C@H](O)c2ccccc2)c1 | – | 4.29 | Active | 67.5
26 | C=CCn1cc(CN[C@H](C)Cn2ccc3ccccc32)c(C)n1 | Active | – | – | –
27 | COc1cccc(/C=N/N=C(N)N)c1 | – | 5.91 | – | –
28 | Cn1c(CN)nc2ccccc21 | – | < 4.00 | – | 21.6
29 | NC(N)=N/N=C/c1cccc(OCc2ccccc2)c1 | – | < 4.00 | – | –
30 | NCCc1ccccc1 [PHENETHYLAMINE] | – | 6.96 | – | –

Source: ChEMBL document CHEMBL3769363, “Discovery of trace amine-associated receptor 1 ligands by molecular docking screening against a homology model” (Medchemcomm, 2015)
